Source: patent US7585850B2 (Adenobio N.V., priority 2005, dated 2009)

Columns and labels:
[1] = in vivo; cited from earlier work
[2] = tested on: normotensive Wistar rats; assay: Effect of oral and IV 330A1 on blood pressure of normotensive Wistar rats; assay type: in vivo, rat
Description: (§1) The experiment was performed in 10 male Wistar rats (340 to 410 g; 5 in the treated group and 5 in the control group). Animals were maintained for two weeks of adaptation in humidity and temperature controlled room and were fed a standard diet (U.A.R, Villemoisson, France). Each animal, (control or treated) was anaesthetized with sodium pentobarbital (6%, 0.9 ml/Kg body weight). The left carotid artery was cannulated with a PE50 polyethylene catheter connected to a pressure transducer (MacLabs, ADInstruments, Hastings, UK). Blood pressure was monitored continuously and recorded. Adb011 was administered orally by gavage at the dose of 50 mg/kg (in Arabic syrup 5%).
(§2) The experiment is similar to example 3.
• 330A1-I (n=4): receiving by gavage the product (50 mg/kg in suspension with Arabic syrup 30 mg/ml) • Control-(n=4)I: receiving by gavage Arabic syrup 30 mg/ml alone • 330A1-II: receiving the product IV (10 mg/kg in suspension with distilled water 30 mg/ml) • Control-II (n=4): receiving IV distilled water

[3] = in vivo; cited from earlier work; remark: listed apart in the source
[4] = tested on: normotensive Wistar rats; assay: Effect of oral Adb111 (AMP complex) on blood pressure of normotensive Wistar rats and comparison with AMP; assay type: in vivo, rat
Description: as §1, with “Adb011 was administered orally by gavage at the dose of 50 mg/kg (in Arabic syrup 5%).” left out
as §2

[5] = tested on: hypoxic rats; assay: Effect of oral Adb011 on chronic pulmonary hypertension caused by hypoxia in rats; assay type: in vivo, rat
Description: Animals were divided in three groups: • Adb-011 chronic treatment (n=5): receiving by gavage Adb-011 (50 mg/kg in suspension with Arabic syrup, 20 mg/ml) twice a day (morning and evening) for 14 days. • Control (n=6): receiving by gavage vehicle (suspension of Arabic syrup 20 mg/kg). • Adb-011 acute treatment (n=6): receiving by gavage vehicle for 14 days and orally treated with a single dose of Adb-011 on the last day (day of surgery). Rats were placed in a chamber where air was circulated at a pressure of 380 Torr, which corresponds to an altitude of 5500 meters. The chamber was open twice a day for ˜30 minutes to treat animals and to replace food and water. On the day of surgery the animals were removed from the chamber and anesthetized with pentobarbital sodium (60 mg/kg ip). A polyethylene catheter (PE-50) was placed in the aortic arch via the left carotid artery. An introducer was advanced in the right ventricle via the right jugular vein. Adequate placement of both catheters was established by the pressure waveform. Both catheters were connected to a pressure transducer (Biopac MP30, BIOPAC Systems, Inc.). The time-lag between last dose of Adb-011 (in group 1) and blood pressure measurement was 14 hours.

[6] = tested on: rats; assay: Effects of Adb011 by the IV route on systemic arterial pressure in rats; assay type: in vivo, rat; conditions: 10 mg/kg IV bolus
Description: as §1, §2
• Adb-011 (n=4): receiving IV a bolus of Adb-011 (10 mg/kg in suspension with distilled water 30 mg/ml) • Control (n=3): receiving IV (distilled water)
In the treated group, blood pressure began to decrease after 15 min of the Adb011 administration and reached a significant maximal decrease of 48 mmHg at […].

[7] = tested on: normotensive Wistar rats; assay: Effect of oral administration of Adb011 on blood pressure of normotensive Wistar rats; assay type: in vivo, rat
Description: as §1
Results are reported as mean±SEM of n experiments. Multiple measurement analysis was performed using ANOVA, followed by Bonferroni-Dunn test. Statistical significance was accepted for p values less than 0.05.
Blood pressure began to decrease after 30 minutes of Adb-011 administration. It reached a significant maximal decrease of −13.9 mmHg between 70 and 100 min. (with respect to vehicle values, p<0.05 ANOVA multiple measurement analysis followed by a Bonferroni-Dunn test) and returned to normal after 110-120 minutes.

[8] = oral administration, conclusion over doses
[9] = 50 mg/kg p.o. twice a day for 14 days, chronic hypoxia
[10] = HxC + A 15 min: single oral dose on day of surgery
[11] = HxC + A 60 min: single oral dose on day of surgery, 60 min

Nc1ncnc2c1ncn2[C@@H]1O[C@H](CO)[C@@H](O)[C@H]1O [adenosine]
plasma half-life [1]: less than 5 seconds

CC(=O)Nc1ccc(C(=O)O)cc1.CC(O)CN(C)C [330A1]
effect on mean arterial blood pressure ([2]; 10 mg/kg IV): minor effect
effect on mean arterial blood pressure ([2]; 50 mg/kg by gavage): minor effect

Nc1ncnc2c1ncn2[C@@H]1O[C@H](COP(=O)(O)O)[C@@H](O)[C@H]1O [AMP, adenosine monophosphate, reference compound]
gastrointestinal bioavailability [3]: poor
time after administration at which blood pressure began to decrease ([4]; 100 mg/kg by gavage): 45 min
time after which blood pressure returned to normal values ([4]; 100 mg/kg by gavage): 120 min
time after administration at which blood pressure began to decrease ([4]; 300 mg/kg by gavage): 45 min
time after which blood pressure returned to normal values ([4]; 300 mg/kg by gavage): 120 min
time for which blood pressure was lowered [4, 8]: 60 min

CC(=O)Nc1ccc(C(=O)O)cc1.CC(=O)Nc1ccc(C(=O)O)cc1.CC(=O)Nc1ccc(C(=O)O)cc1.CC(O)CN(C)C.CC(O)CN(C)C.CC(O)CN(C)C.Nc1ncnc2c1ncn2[C@@H]1O[C@H](COP(=O)(O)O)[C@@H](O)[C@H]1O [Adb111]
time after administration at which blood pressure began to decrease ([4]; 100 mg/kg by gavage): 45 min
time after which blood pressure returned to normal values ([4]; 100 mg/kg by gavage): 180 min
time after administration at which blood pressure began to decrease ([4]; 300 mg/kg by gavage): 45 min
time after which blood pressure returned to normal values ([4]; 300 mg/kg by gavage): 180 min
time after oral administration at which blood pressure lowering began [4, 8]: 45 min
time for which blood pressure was lowered [4, 8]: up to 165 min
bioavailability and efficacy compared with natural AMP ([4]; oral, comparable doses): better bioavailabity and efficacy over natural AMP

CC(=O)Nc1ccc(C(=O)O)cc1.CC(=O)Nc1ccc(C(=O)O)cc1.CC(=O)Nc1ccc(C(=O)O)cc1.CC(O)CN(C)C.CC(O)CN(C)C.CC(O)CN(C)C.Nc1ncnc2c1ncn2[C@@H]1O[C@H](CO)[C@@H](O)[C@H]1O [Adb011]
change of right ventricular hypertrophy [5, 9]: -75 mg
decrease of pulmonary hypertension [5, 9]: 21.5 mmHg
effect on systemic pressure [5, 9]: no effect
RVp (right ventricular pressure) ([5]; HxA: chronic treatment 50 mg/kg p.o. twice a day 14 days, measured 14 h after last dose): 53.30 ± 461 mmHg
(LV + S)w (left ventricular + septum weight) ([5]; HxA: chronic treatment 14 days): 729 ± 56
C(a − v)O2 (arterial − venous O2 difference) ([5]; HxA: chronic treatment 14 days): 8.0 ± 0.4 mL O2/dL blood
CaO2 (arterial O2 content) ([5]; HxA: chronic treatment 14 days): 29.2 ± 0.9 mL O2/dL of blood
Cardiac output ([5]; HxA: chronic treatment 14 days): 162 ± 8 mL/min/kg
CvO2 (venous O2 content) ([5]; HxA: chronic treatment 14 days): 21.2 ± 1.0 mL O2/dL of blood
HR (heart rate) ([5]; HxA: chronic treatment 14 days): 364 ± 15 beat/min
MABP (mean arterial blood pressure) ([5]; HxA: chronic treatment 14 days): 113 ± 2 mmHg
RVw (right ventricular weight) ([5]; HxA: chronic treatment 14 days): 362 ± 10 mg
SV (stroke volume) ([5]; HxA: chronic treatment 14 days): 0.45 ± 0.02 mL/kg
SVR (systemic vascular resistance) ([5]; HxA: chronic treatment 14 days): 0.70 ± 0.03
SaO2 (arterial oxygen saturation) ([5]; HxA: chronic treatment 14 days): 92 ± 1 %
VO2 (oxygen consumption) ([5]; HxA: chronic treatment 14 days): 12.81 ± 0.29 mL/min/kg
(LV + S)w (left ventricular + septum weight) [5, 10]: 675 ± 21
C(a − v)O2 (arterial − venous O2 difference) [5, 10]: 8.3 ± 0.5 mL O2/dL blood
CaO2 (arterial O2 content) [5, 10]: 27.3 ± 1.4 mL O2/dL of blood
Cardiac output [5, 10]: 164 ± 11 mL/min/kg
CvO2 (venous O2 content) [5, 10]: 19.0 ± 1.5 mL O2/dL of blood
HR (heart rate) [5, 10]: 352 ± 12 beat/min
MABP (mean arterial blood pressure) [5, 10]: 107 ± 5 mmHg
RVw (right ventricular weight) [5, 10]: 436 ± 21 mg
SV (stroke volume) [5, 10]: 0.47 ± 0.03 mL/kg
SVR (systemic vascular resistance) [5, 10]: 0.68 ± 0.06
SaO2 (arterial oxygen saturation) [5, 10]: 82 ± 4%
VO2 (oxygen consumption) [5, 10]: 13.38 ± 0.61 mL/min/kg
RVp (right ventricular pressure) ([5]; HxC + A 15 min: single oral dose on day of surgery, 15 min): 75.17 ± 0.95 mmHg
HR (heart rate) [5, 11]: 329 ± 4 beat/min
MABP (mean arterial blood pressure) [5, 11]: 92 ± 5 mmHg
RVp (right ventricular pressure) [5, 11]: 52.83 ± 3.83 mmHg
reduction of pulmonary artery pressure ([5]; acute single oral dose, rats with fixed pulmonary hypertension): −22 mmHg
maximal decrease of blood pressure [6]: 48 mmHg
mean arterial blood pressure two hours after injection [6]: still very low two hours after injection
time after administration at which blood pressure began to decrease [6]: 15 min
time of maximal decrease of blood pressure [6]: 15 min
time after which blood pressure returned to normal ([7]; 50 mg/kg p.o.): 110 to 120 min
time after administration at which blood pressure began to decrease ([7]; 50 mg/kg p.o. by gavage, anaesthetized rats): 30 min
maximal decrease of blood pressure ([7]; 50 mg/kg p.o., with respect to vehicle values, p<0.05): −13.9 mmHg
